# Data as given in US8399681B2, “Substituted aminothiazolone indazoles as estrogen related receptor-alpha modulators” (Janssen Pharmaceutica NV, priority 2009, dated 2013).
# Molecular target: T1, ERR1 (also known as ERR-α or ERR-1) (Homo sapiens, UniProt P11474)
# T1 sequence (P11474 193-421 limits assumed): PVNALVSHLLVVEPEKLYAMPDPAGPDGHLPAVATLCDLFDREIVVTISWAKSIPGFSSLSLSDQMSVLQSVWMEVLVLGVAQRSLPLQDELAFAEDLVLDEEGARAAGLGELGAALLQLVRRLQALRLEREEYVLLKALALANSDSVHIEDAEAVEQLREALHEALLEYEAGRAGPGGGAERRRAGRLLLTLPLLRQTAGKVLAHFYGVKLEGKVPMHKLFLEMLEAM
# Test: TR-FRET assay (disruption of co-activator peptide binding)
# Assay type: biochemical
# Conditions: 6His-tagged ERR1 LBD, GST-hSRC2 co-activator polypeptide; average of 3 independent experiments
# In short: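 Compound-induced loss of co-activator recruitment, read by time-resolved FRET (excitation 340 nm; 615 and 665 nm emission) after 4-18 h at 25 °C. Reagents: 6 nM ERR1LBD, 6 nM GST-SRC-2, 30 nM Eu cryptate, 7.5 nM XL665, pH 8 Tris buffer. Values: hyperbolic fits averaged over 3 independent runs.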
row,EC50 [µM],Compound
1,0.0047,"COCC(=O)N1C[C@@H]2C[C@H]1CN2C1=NC(=O)/C(=C/c2ccc3c(cnn3Cc3ccc(Cl)cc3C(F)(F)F)c2)S1 [Example 89, 5-[1-(4-Chloro-2-trifluoromethyl-benzyl)-1H-indazol-5-ylmethylene]-2-[5-(2-methoxy-acetyl)-2S,5S-diaza-bicyclo[2.2.1]hept-2-yl]-thiazol-4-one]"
2,0.011,"C[C@@H]1CN(C2=NC(=O)/C(=C/c3ccc4c(cnn4Cc4ccc(C(F)(F)F)cc4C(F)(F)F)c3)S2)C[C@H](C)N1 [Example 238, 5-({1-[2,4-(trifluoromethyl)benzyl]-1H-indazol-5-yl}methylidene)-2-(3,5-(cis)-dimethylpiperazin-1-yl)-1,3-thiazol-4(5H)-one]"
3,0.02,"CN1CCN(C2=NC(=O)/C(=C/c3ccc4c(cnn4Cc4ccc(C(F)(F)F)cc4C(F)(F)F)c3)S2)C[C@@H]1CO [Example 195, 5-({1-[2,4-Bis(trifluoromethyl)benzyl]-1H-indazol-5-yl}methylidene)-2-[3-(R)-(hydroxymethyl)-4-methylpiperazin-1-yl]-1,3-thiazol-4(5H)-one]"
4,0.038,"CC(C)(C)N1CCN(C2=NC(=O)/C(=C/c3ccc4c(cnn4Cc4ccc(C(F)(F)F)cc4C(F)(F)F)c3)S2)C[C@@H]1CO [Example 207, 5-({1-[2,4-Bis(trifluoromethyl)benzyl]-1H-indazol-5-yl}methylidene)-2-[4-tert-butyl-3-(R)-(hydroxymethyl)piperazin-1-yl]-1,3-thiazol-4(5H)-one]"
5,0.127,"C[C@@H]1CN(C2=NC(=O)/C(=C/c3ccc4c(cnn4Cc4ccc(C(C)(C)O)cc4Cl)c3)S2)C[C@H](C)N1 [Example 233, 5-({1-[2-Chloro-4-(1-hydroxy-1-methylethyl)benzyl]-1H-indazol-5-yl}methylidene)-2-(3,5-(cis)-dimethylpiperazin-1-yl)-1,3-thiazol-4(5H)-one]"
6,0.0107,"O=C1N=C(N2CCN[C@@H](CO)C2)S/C1=C\c1ccc2c(cnn2Cc2ccc(Cl)cc2C(F)(F)F)c1 [Example 132, 5-[1-(4-Chloro-2-trifluoromethyl-benzyl)-1H-indazol-5-ylmethylene]-2-(3-(R)-hydroxymethyl-piperazin-1-yl)-thiazol-4-one]"
7,0.0032,"O=C1N=C(N2CCC[C@H]2C(=O)O)S/C1=C\c1ccc2c(cnn2Cc2ccc(Cl)cc2C(F)(F)F)c1 [Example 44, 1-{5-[1-(4-Chloro-2-trifluoromethyl-benzyl)-1H-indazol-5-ylmethylene]-4-oxo-4,5-dihydro-thiazol-2-yl}-pyrrolidine-2-(S)-carboxylic acid]"
8,0.01,"COc1ccc(Cn2ncc3cc(/C=C4\SC(N5C[C@@H](O)[C@H](O)C5)=NC4=O)ccc32)c(C(F)(F)F)c1 [Example 32, 2-(3R,4R-Dihydroxy-pyrrolidin-1-yl)-5-[1-(4-methoxy-2-trifluoromethyl-benzyl)-1H-indazol-5-ylmethylene]-thiazol-4-one]"
9,0.003,"COc1ccc(Cn2ncc3cc(/C=C4\SC(N5CCN(C)CC5)=NC4=O)ccc32)c(C(F)(F)F)c1 [Compound 21, 5-[1-(4-Methoxy-2-trifluoromethyl-benzyl)-1H-indazol-5-ylmethylene]-2-(4-methyl-piperazin-1-yl)-thiazol-4-one]"
10,0.011,"CN1C[C@@H]2C[C@H]1CN2C1=NC(=O)/C(=C/c2ccc3c(cnn3Cc3ccc(C(F)(F)F)cc3C(F)(F)F)c2)S1 [Example 70, 5-[1-(2,4-Bis-trifluoromethyl-benzyl)-1H-indazol-5-ylmethylene]-2-(5-methyl-2S,5S-diaza-bicyclo[2.2.1]hept-2-yl)-thiazol-4-one]"
11,0.017,"Cc1nn(Cc2ccc(Cl)cc2C(F)(F)F)c2ccc(/C=C3\SC(N4CCN(C)C(C)(C)C4)=NC3=O)cc12 [Example 278, 5-({1-[4-Chloro-2-(trifluoromethyl)benzyl]-3-methyl-1H-indazol-5-yl}methylidene)-2-(3,3,4-trimethylpiperazin-1-yl)-1,3-thiazol-4(5H)-one]"
12,0.018,"CCC1(O)CCCN(C2=NC(=O)/C(=C/c3ccc4c(cnn4Cc4ccc(Cl)cc4C(F)(F)F)c3)S2)C1 (stereo not drawn) [Example 165, 5-[1-(4-Chloro-2-trifluoromethyl-benzyl)-1H-indazol-5-ylmethylene]-2-(3-ethyl-3-hydroxy-piperidin-1-yl)-thiazol-4-one]"
13,0.004,"O=C1N=C(N2CCO[C@@H](CO)C2)S/C1=C\c1ccc2c(cnn2Cc2ccc(O)cc2C(F)(F)F)c1 [Example 249, 2-[(2R)-2-(Hydroxymethyl)morpholin-4-yl]-5-({1-[4-hydroxy-2-(trifluoromethyl)benzyl]-1H-indazol-5-yl}methylidene)-1,3-thiazol-4(5H)-one]"
14,0.041,"C=C(C)c1ccc(Cn2ncc3cc(/C=C4\SC(N5CCN[C@@H](CO)C5)=NC4=O)ccc32)c(C(F)(F)F)c1 [Example 247, 2-[3-(R)-(Hydroxymethyl)piperazin-1-yl]-5-({1-[4-(1-methylethenyl)-2-(trifluoromethyl)benzyl]-1H-indazol-5-yl}methylidene)-1,3-thiazol-4(5H)-one]"
15,0.029,"CC(=O)c1cc(Cl)ccc1Cn1ncc2cc(/C=C3\SC(N4CCN(C)CC4)=NC3=O)ccc21 [Example 97, 5-[1-(2-Acetyl-4-chloro-benzyl)-1H-indazol-5-ylmethylene]-2-(4-methyl-piperazin-1-yl)-thiazol-4-one]"
16,0.52,"COCCOc1ccc(Cn2ncc3cc(/C=C4\SC(N5CCN(C)CC5)=NC4=O)ccc32)c(C(F)(F)F)c1 [Compound 24, 5-{1-[4-(2-Methoxy-ethoxy)-2-trifluoromethyl-benzyl]-1H-indazol-5-ylmethylene}-2-(4-methyl-piperazin-1-yl)-thiazol-4-one]"
17,0.134,"C=C(C)c1ccc(Cn2ncc3cc(/C=C4\SC(N5CCN[C@@H](CO)C5)=NC4=O)ccc32)c(Cl)c1 [Example 230, 5-({1-[2-Chloro-4-(1-methylethenyl)benzyl]-1H-indazol-5-yl}methylidene)-2-[3-(R)-(hydroxymethyl)piperazin-1-yl]-1,3-thiazol-4(5H)-one]"
18,0.49,"CC(C)(O)c1ccc(Cn2ncc3cc(/C=C4\SC(N5CCO[C@@H](CO)C5)=NC4=O)ccc32)c(Cl)c1 [Example 231, 5-({1-[2-Chloro-4-(1-hydroxy-1-methylethyl)benzyl]-1H-indazol-5-yl}methylidene)-2-[2-(R)-(hydroxymethyl)morpholin-4-yl]-1,3-thiazol-4(5H)-one]"
19,0.006,"COC[C@H]1CN(C2=NC(=O)/C(=C/c3ccc4c(cnn4Cc4ccc(Cl)cc4C(F)(F)F)c3)S2)CCN1 [Example 208, 5-({1-[4-Chloro-2-(trifluoromethyl)benzyl]-1H-indazol-5-yl}methylidene)-2-[3-(R)-(methoxymethyl)piperazin-1-yl]-1,3-thiazol-4(5H)-one]"
20,0.03,"O=C1N=C(N2CC(N3CCOCC3)C2)S/C1=C\c1ccc2c(cnn2Cc2ccc(Cl)cc2C(F)(F)F)c1 [Example 205, 5-({1-[4-Chloro-2-(trifluoromethyl)benzyl]-1H-indazol-5-yl}methylidene)-2-(3-morpholin-4-ylazetidin-1-yl)-1,3-thiazol-4(5H)-one]"
21,0.028,"CCOC(=O)N1CCCN(C2=NC(=O)/C(=C/c3ccc4c(cnn4Cc4ccc(C(F)(F)F)cc4C(F)(F)F)c3)S2)CC1 [Example 129, 4-{5-[1-(2,4-Bis-trifluoromethyl-benzyl)-1H-indazol-5-ylmethylene]-4-oxo-4,5-dihydro-thiazol-2-yl}-[1,4]diazepane-1-carboxylic acid ethyl ester]"
22,0.0045,"CN1C[C@@H]2C[C@H]1CN2C1=NC(=O)/C(=C/c2ccc3c(cnn3Cc3ccc(Cl)cc3C(F)(F)F)c2)S1 [Example 78, 5-[1-(4-Chloro-2-trifluoromethyl-benzyl)-1H-indazol-5-ylmethylene]-2-(5-methyl-2S,5S-diaza-bicyclo[2.2.1]hept-2-yl)-thiazol-4-one]"
23,0.032,"CCOC(=O)N1CCCN(C2=NC(=O)/C(=C/c3ccc4c(cnn4Cc4ccc(Cl)cc4C(F)(F)F)c3)S2)CC1 [Example 128, 4-{5-[1-(4-Chloro-2-trifluoromethyl-benzyl)-1H-indazol-5-ylmethylene]-4-oxo-4,5-dihydro-thiazol-2-yl}-[1,4]diazepane-1-carboxylic acid ethyl ester]"
24,0.35,"CS(=O)(=O)c1ccc(Cn2ncc3cc(/C=C4\SC(N5CCN(CCO)CC5)=NC4=O)ccc32)c(Cl)c1 [Compound 19, 5-[1-(2-Chloro-4-methanesulfonyl-benzyl)-1H-indazol-5-ylmethylene]-2-[4-(2-hydroxy-ethyl)-piperazin-1-yl]-thiazol-4-one]"
25,0.005,"CC[C@H]1CN(C2=NC(=O)/C(=C/c3ccc4c(cnn4Cc4ccc(Cl)cc4C(F)(F)F)c3)S2)CCN1 (stereo in doubt) [Example 123, 5-[1-(4-Chloro-2-trifluoromethyl-benzyl)-1H-indazol-5-ylmethylene]-2-(3-ethyl-piperazin-1-yl)-thiazol-4-one]"
26,0.0597,"C[C@@H]1CN(C2CN(C3=NC(=O)/C(=C/c4ccc5c(cnn5Cc5ccc(C(F)(F)F)cc5C(F)(F)F)c4)S3)C2)C[C@H](C)O1 [Example 202, 5-({1-[2,4-Bis(trifluoromethyl)benzyl]-1H-indazol-5-yl}methylidene)-2-[3-(2,6-cis-dimethylmorpholin-4-yl)azetidin-1-yl]-1,3-thiazol-4(5H)-one]"
27,0.043,"O=C1N=C(N2CCCC(NCCO)C2)S/C1=C\c1ccc2c(cnn2Cc2ccc(C(F)(F)F)cc2C(F)(F)F)c1 (stereo not drawn) [Example 267, 5-({1-[2,4-Bis(trifluoromethyl)benzyl]-1H-indazol-5-yl}methylidene)-2-{3-[(2-hydroxyethyl)amino]piperidin-1-yl}-1,3-thiazol-4(5H)-one]"
